Series [1] can be described thus: Metabolic stability in dog liver microsomes. The class given is in vitro ADME. (Liver microsomes are vesicles of endoplasmic reticulum, rich in cytochrome P450 enzymes.)
A short description of series [2]: Metabolic stability in human liver microsomes. It is filed as in vitro ADME. The settings on record: 1 μM test item, 60 minutes, 37° C., NADPH. The protocol: Metabolic stability studies were conducted on Compounds A, A1, and A2 as well as Example 128 of WO 2012/151525 using mouse, rat, dog, monkey, and human liver microsomes. The protocol for the studies with mouse, rat, and human liver microsomes (all from BD Gentest, USA) is provided below. 0.4 mg protein was preincubated with 2 mM NADPH (cofactor) in phosphate buffer (pH-7.4) for 15 minutes at 37° C. and then added with 1 μM test item and incubated further for 60 minutes in triplicate. The reaction mixture was terminated with methanol containing an internal standard and centrifuged further to analyze the test item remaining in the supernatant by LC-MS/MS. The percent parent compound remaining was calculated in comparison with similar samples terminated at 0 minutes.

Series [3] has as its target PI3Kγ (Homo sapiens, UniProt P48736). The experiment in a line: Assay 1: Fluorescent (HTRF) determination of PI3 kinase enzyme activity, PI3Kγ. The class given is biochemical. The settings on record: read-out: IC50 (nM) PI3Kγ. An excerpt:
Phosphoinositide 3 kinases (PI3K) belong to a class of lipid kinases that play a critical role in the regulation of several key cellular processes. The PI3K are capable of phosphorylating the 3-hydroxy position of phosphoinositols thereby generating second messengers involved in downstream signaling events. The homogenous time resolved fluorescence (HTRF) assay allows detection of 3,4,5-triphosphate (PIPS) formed as a result of phosphorylation of phosphotidylinositol 4,5-biphosphate (PIP2) by PI3K isoforms such as α, β, γ or δ.
PI3K isoform activity for α, β, γ or δ was determined using a PI3K human HTRF™ Assay Kit (Millipore, Billerica, Mass.) with modifications. All incubations were carried out at room temperature. 0.5 μl of 40× inhibitor (in 100% DMSO) or 100% DMSO were added to each well of a 384-well white plate (Greiner Bio-One, Monroe, N.C.) containing 14.5 μl 1× reaction buffer/PIP2 (10 mM MgCl2, 5 mM DTT, 1.38 μM PIP2) mix with or without enzyme, followed by 5 μl/well of 400 μM ATP and incubated for an additional 30 minutes. The reaction was terminated by adding 5 μl/well stop solution (Millipore, Billerica, Mass.). 5 μl of detection mix (Millipore, Billerica, Mass.) was then added to each well and incubated for 6-18 hours in the dark. HRTF ratio was measured on a microplate reader (BMG Labtech., Germany) at an excitation wavelength of 337 nm and emission wavelengths of 665 and 615 nm with an integration time of 400 msec counting delay of 50 msec.
(In general: Time-resolved FRET reads energy transfer from a long-lived donor to a nearby acceptor.)

Series [4] relates to male Balb/c mice. The experiment in a line: Assay 13: Imiquimod induced plaque psoriasis in Balb/c mice model. It is filed as in vivo. The settings on record: imiquimod induced psoriasis, 3, 10, 30 mg/kg oral, compared to the control group. The protocol: Imiquimod (IMQ) is a ligand for TLR7 and TLR8, originally used for the treatment of non-melanoma skin cancers. […] Animals (male Balb/c mice) were acclimatized for seven days prior to the start of the experiment. Animals were randomly distributed to various groups based on their body weights. On day 0, the back skin of the mice was shaved by topical application of hair removal cream. On day 1, mice were administered the test compound or vehicle by the oral route and after 1 hour the […] received a topical application of 62.5 mg of commercially available IMQ cream (5%; Beselna Cream; Mochida Pharmaceuticals, Tokyo, Japan) on the shaved back skin. The mice were treated with topical application of imiquimod for the next 5 consecutive days, one hour after test compound or vehicle administration. Animals were allowed to dry for one hour before returning to their cages after topical application on every day. Four hours after the final application of IMQ cream, the mice were killed and skin samples were obtained. Back skin thickness was measured using dial thickness gauge. After measuring skin thickness, skin samples were fixed in 10% neutral buffered formalin solution and embedded in paraffin. Deparaffinised sections were stained with hematoxylin-eosin (HE). Epidermal thickness was quantified by averaging the values of five independent fields per section. To score the severity of inflammation of the back skin, an objective scoring system was used based on the human clinical Psoriasis Area and Severity Index (PASI). Erythema, scaling, and thickening were scored independently on a scale from 0 to 4: 0=none; 1=slight; 2=moderate; 3=marked; and 4=very marked.

As usually defined, the IC50 is the concentration needed to halve the response being measured.

Chain of PI3Kγ (P48736 whole entry, canonical isoform): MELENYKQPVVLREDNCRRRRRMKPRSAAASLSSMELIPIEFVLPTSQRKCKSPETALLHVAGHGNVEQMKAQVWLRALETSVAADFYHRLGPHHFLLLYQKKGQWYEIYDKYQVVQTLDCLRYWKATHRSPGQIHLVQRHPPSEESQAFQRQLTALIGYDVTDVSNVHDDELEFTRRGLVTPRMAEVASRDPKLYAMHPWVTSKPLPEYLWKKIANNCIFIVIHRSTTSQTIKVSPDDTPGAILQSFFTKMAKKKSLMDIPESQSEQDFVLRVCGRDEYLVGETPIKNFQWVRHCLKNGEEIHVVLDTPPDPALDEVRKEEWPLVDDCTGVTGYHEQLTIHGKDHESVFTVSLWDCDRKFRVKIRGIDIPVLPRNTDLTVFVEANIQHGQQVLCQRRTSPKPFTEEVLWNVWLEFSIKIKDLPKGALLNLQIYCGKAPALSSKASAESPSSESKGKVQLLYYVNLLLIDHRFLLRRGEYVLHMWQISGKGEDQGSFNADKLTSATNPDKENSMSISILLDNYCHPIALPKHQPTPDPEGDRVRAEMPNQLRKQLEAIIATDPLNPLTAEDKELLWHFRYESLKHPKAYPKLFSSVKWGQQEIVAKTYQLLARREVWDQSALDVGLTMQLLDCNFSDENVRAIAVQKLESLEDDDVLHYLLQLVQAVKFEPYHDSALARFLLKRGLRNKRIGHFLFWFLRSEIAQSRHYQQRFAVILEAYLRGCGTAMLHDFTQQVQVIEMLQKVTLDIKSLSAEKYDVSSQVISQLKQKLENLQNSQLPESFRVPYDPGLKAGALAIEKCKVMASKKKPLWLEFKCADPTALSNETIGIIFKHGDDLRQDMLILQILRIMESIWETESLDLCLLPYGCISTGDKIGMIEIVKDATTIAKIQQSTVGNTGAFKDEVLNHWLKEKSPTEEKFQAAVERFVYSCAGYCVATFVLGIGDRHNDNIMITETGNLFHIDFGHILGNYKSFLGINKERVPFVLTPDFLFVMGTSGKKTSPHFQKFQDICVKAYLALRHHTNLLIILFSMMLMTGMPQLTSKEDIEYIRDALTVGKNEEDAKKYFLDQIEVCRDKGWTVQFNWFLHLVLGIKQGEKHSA

In the case of `COc1ccc(-c2nn([C@@H](C)c3oc4cccc(F)c4c(=O)c3-c3cccc(F)c3)c3ncnc(N)c23)cc1NS(C)(=O)=O` [Compound A1, (S)—N-(5-(4-amino-1-(1-(5-fluoro-3-(3-fluorophenyl)-4-oxo-4H-chromen-2-yl)ethyl)-1H-pyrazolo[3,4-d]pyrimidin-3-yl)-2-methoxyphenyl)methanesulfonamide], the “Metabolic stability in liver microsomes (percent parent compound remaining), Dog” value in series [1] came out at 83.5%. Further, the “Metabolic stability in liver microsomes (percent parent compound remaining), Human” value in series [2] came out at 95.7%. The IC50 in series [3] was 48.7 nM. Further, in series [4], the back skin thickness entry is on record as “reduced”, the erythema entry is “reduced” and the scaling result is recorded as “reduced”.
